Test results taken from the NIST ThermoML archive (doi:10.1021/acs.jced.6b00008).
± gives the expanded uncertainty stated by the source.

Tests used:
[1] = Molar enthalpy of transition or fusion; settings: Crystal; DSC
[2] = Crystal; DTA

O=C(/C=C/c1ccc(O)c(O)c1)O[C@H](Cc1ccc(O)c(O)c1)C(=O)O [rosmarinic acid]
Molar enthalpy of transition or fusion [1]: 3.92 ± 0.335 kcal/mol
Normal melting temperature [2]: 160.96 ± 3.4 °C
